From ChEMBL document CHEMBL4118098, “Discovery of DS28120313 as a potent orally active hepcidin production inhibitor: Design and optimization of novel 4,6-disubstituted indazole derivatives” (Bioorg Med Chem Lett, 2017) come the findings set out here.

Usually inhibition stands for the relative decrease from the control value, in per cent.

SMILES strings stand for the structures.

In assay [1] the target is Macrophage colony-stimulating factor 1 receptor (Homo sapiens) (UniProt P07333). In words: Inhibition of FMS (unknown origin) at 0.19 uM relative to control.
Assay [2] concerns the target Protein kinase C gamma type (Homo sapiens) (UniProt P05129). Description: Inhibition of PKC-gamma (unknown origin) at 0.19 uM relative to control.
The target of assay [3] is Homeodomain-interacting protein kinase 2 (Homo sapiens) (UniProt Q9H2X6). Description: Inhibition of HIPK2 (unknown origin) at 0.19 uM relative to control.
Assay [4] has as its target NUAK family SNF1-like kinase 1 (Homo sapiens) (UniProt O60285). In words: Inhibition of NuaK1 (unknown origin) at 0.164 uM relative to control.
Assay [5] concerns the target Cyclin-dependent kinase 5/CDK5 activator 1 (Homo sapiens) (UniProt Q00535+Q15078). Description: Inhibition of CDK5/p25 (unknown origin) at 0.164 uM relative to control. In kind it is protein-complex assay.
The target in assay [6] is Maternal embryonic leucine zipper kinase (Homo sapiens) (UniProt Q14680). Description: Inhibition of MELK (unknown origin) at 0.164 uM relative to control.
Assay [7] addresses Dual specificity tyrosine-phosphorylation-regulated kinase 2 (Homo sapiens) (UniProt Q92630). In words: Inhibition of DYRK2 (unknown origin) at 0.164 uM relative to control.
For assay [8], the target named is Serine/threonine-protein kinase DCLK2 (Homo sapiens) (UniProt Q8N568). In words: Inhibition of DCAMKL2 (unknown origin) at 0.164 uM relative to control.
Assay [9] deals with Serine/threonine-protein kinase PAK 5 (Homo sapiens) (UniProt Q9P286). In words: Inhibition of PAK5/PAK7 (unknown origin) at 0.164 uM relative to control.
The target in assay [10] is Serine/threonine-protein kinase Nek1 (Homo sapiens) (UniProt Q96PY6). Description: Inhibition of NEK1 (unknown origin) at 0.164 uM relative to control.
The target of assay [11] is Tyrosine-protein kinase receptor UFO (Homo sapiens) (UniProt P30530). In words: Inhibition of AXL (unknown origin) at 0.164 uM relative to control.
Assay [12] addresses Inhibitor of nuclear factor kappa-B kinase subunit beta (Homo sapiens) (UniProt O14920). In words: Inhibition of IKK-beta (unknown origin) at 0.164 uM relative to control.
Assay [13] concerns the target T1, Serine/threonine-protein kinase DCLK1 (Homo sapiens) (UniProt O15075).
T1 sequence (whole entry): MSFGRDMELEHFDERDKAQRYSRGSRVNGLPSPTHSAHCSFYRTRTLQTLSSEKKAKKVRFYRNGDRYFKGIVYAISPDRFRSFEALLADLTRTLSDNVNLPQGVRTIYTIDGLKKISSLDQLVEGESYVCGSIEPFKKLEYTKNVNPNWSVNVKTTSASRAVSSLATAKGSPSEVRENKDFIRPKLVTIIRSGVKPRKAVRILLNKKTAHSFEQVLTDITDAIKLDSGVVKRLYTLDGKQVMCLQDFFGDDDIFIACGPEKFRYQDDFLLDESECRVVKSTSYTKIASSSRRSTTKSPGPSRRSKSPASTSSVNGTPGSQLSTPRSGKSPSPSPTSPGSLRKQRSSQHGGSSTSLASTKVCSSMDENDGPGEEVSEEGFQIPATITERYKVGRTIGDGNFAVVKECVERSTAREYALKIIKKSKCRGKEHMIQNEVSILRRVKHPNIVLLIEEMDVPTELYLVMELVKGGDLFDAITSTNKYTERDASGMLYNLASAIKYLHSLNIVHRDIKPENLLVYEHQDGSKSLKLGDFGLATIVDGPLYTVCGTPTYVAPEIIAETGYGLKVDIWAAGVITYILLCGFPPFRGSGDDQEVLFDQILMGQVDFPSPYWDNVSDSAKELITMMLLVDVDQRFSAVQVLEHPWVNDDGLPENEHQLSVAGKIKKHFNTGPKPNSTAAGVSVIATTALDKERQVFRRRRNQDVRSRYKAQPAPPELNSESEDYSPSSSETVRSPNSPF
Description: Inhibition of DCAMKL1 (unknown origin) at 0.45 uM relative to control.

In assay [14] the target is T2, Testis-specific serine/threonine-protein kinase 2 (Homo sapiens) (UniProt Q96PF2).
T2 sequence (whole entry): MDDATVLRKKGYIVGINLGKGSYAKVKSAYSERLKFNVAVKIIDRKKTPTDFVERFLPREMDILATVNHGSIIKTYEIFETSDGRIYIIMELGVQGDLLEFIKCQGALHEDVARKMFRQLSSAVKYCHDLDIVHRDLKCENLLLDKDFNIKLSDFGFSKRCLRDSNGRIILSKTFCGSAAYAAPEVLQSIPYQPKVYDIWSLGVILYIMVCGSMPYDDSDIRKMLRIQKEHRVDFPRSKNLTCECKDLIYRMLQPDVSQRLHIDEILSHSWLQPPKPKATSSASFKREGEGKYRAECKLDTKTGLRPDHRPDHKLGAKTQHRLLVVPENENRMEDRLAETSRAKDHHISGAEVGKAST
In words: Inhibition of TSSK2 (unknown origin) at 0.45 uM relative to control.

Assay [15] deals with CDK4/Cyclin D3 (Homo sapiens) (UniProt P11802+P30281). In words: Inhibition of CDK4/CyclinD3 (unknown origin) at 0.45 uM relative to control. In kind it is protein-complex assay.
In assay [16] the target is T3, Protein kinase C iota type (Homo sapiens) (UniProt P41743).
T3 sequence (whole entry): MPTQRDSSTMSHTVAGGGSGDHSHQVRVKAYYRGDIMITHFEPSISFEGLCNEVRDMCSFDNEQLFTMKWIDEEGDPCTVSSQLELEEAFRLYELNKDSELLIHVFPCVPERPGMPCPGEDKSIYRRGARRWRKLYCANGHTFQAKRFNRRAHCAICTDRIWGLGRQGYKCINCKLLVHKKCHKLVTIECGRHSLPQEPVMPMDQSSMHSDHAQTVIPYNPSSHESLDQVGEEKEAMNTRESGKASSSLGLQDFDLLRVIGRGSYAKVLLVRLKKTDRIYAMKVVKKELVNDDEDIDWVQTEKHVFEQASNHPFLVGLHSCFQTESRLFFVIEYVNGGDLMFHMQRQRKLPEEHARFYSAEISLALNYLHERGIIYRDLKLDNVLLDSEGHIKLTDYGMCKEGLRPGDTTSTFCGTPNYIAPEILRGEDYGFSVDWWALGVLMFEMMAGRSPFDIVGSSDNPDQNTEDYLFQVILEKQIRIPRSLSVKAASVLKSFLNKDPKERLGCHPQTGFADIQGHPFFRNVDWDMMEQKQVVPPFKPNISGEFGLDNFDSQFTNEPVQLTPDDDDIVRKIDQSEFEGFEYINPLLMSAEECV
Description: Inhibition of PKC-iota (unknown origin) at 0.45 uM relative to control.

In assay [17] the target is Serine/threonine-protein kinase pim-3 (Homo sapiens) (UniProt Q86V86). In words: Inhibition of PIM3 (unknown origin) at 0.45 uM relative to control.

Serine/threonine-protein kinase DCLK2 (Homo sapiens), sequence (Q8N568 whole entry): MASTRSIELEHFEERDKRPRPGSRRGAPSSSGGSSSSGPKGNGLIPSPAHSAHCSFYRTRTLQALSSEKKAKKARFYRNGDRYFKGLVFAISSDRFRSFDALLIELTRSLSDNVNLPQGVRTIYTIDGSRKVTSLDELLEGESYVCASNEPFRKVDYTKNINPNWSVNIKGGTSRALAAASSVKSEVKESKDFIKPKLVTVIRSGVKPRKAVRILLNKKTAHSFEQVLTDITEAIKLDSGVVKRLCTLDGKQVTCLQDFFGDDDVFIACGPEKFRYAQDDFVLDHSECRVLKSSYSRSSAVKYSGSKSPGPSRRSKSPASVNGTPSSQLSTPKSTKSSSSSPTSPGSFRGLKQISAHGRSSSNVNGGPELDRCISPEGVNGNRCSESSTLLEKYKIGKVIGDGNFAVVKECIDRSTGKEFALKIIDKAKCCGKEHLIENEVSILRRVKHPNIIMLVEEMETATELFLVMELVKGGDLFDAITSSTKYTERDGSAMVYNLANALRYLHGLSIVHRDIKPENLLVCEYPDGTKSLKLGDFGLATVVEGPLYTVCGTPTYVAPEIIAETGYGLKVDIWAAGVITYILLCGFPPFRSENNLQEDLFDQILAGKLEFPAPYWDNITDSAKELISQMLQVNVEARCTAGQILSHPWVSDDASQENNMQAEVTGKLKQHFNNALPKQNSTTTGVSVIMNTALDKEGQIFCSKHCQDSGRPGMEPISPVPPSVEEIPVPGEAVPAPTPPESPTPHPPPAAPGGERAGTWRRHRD
Homeodomain-interacting protein kinase 2 (Homo sapiens), sequence (Q9H2X6 whole entry, looked up): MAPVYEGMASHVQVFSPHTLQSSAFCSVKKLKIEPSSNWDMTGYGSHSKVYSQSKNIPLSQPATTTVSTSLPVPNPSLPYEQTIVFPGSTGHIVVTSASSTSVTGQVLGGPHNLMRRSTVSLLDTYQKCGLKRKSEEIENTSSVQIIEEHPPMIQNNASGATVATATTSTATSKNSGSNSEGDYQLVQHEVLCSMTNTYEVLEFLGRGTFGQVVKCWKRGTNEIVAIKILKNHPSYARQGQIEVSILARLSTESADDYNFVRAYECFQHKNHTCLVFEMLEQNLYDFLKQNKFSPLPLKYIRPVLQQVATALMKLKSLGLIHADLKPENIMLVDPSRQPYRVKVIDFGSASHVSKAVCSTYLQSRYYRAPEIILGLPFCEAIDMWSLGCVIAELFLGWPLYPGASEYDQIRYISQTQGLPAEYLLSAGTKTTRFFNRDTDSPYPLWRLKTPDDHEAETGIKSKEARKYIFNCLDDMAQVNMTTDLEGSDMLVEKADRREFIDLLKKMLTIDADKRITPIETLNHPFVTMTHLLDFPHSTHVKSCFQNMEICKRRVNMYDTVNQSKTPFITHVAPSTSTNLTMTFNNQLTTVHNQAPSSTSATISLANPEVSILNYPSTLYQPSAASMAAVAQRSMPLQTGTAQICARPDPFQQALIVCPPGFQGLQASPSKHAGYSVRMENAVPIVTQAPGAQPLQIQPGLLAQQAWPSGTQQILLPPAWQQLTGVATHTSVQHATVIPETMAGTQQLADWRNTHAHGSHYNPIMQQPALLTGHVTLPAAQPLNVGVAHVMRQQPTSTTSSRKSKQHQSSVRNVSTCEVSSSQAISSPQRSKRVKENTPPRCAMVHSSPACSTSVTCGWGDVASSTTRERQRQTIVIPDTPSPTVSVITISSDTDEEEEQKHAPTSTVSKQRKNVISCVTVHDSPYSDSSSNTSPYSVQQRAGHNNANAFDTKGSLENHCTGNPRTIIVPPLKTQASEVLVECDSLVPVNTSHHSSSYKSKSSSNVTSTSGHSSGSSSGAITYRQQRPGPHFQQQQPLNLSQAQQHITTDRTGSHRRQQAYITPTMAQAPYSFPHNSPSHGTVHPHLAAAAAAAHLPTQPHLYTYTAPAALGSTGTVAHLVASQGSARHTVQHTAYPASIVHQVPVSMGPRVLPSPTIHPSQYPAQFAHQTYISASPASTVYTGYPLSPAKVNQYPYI
Tyrosine-protein kinase receptor UFO (Homo sapiens), sequence (P30530 whole entry): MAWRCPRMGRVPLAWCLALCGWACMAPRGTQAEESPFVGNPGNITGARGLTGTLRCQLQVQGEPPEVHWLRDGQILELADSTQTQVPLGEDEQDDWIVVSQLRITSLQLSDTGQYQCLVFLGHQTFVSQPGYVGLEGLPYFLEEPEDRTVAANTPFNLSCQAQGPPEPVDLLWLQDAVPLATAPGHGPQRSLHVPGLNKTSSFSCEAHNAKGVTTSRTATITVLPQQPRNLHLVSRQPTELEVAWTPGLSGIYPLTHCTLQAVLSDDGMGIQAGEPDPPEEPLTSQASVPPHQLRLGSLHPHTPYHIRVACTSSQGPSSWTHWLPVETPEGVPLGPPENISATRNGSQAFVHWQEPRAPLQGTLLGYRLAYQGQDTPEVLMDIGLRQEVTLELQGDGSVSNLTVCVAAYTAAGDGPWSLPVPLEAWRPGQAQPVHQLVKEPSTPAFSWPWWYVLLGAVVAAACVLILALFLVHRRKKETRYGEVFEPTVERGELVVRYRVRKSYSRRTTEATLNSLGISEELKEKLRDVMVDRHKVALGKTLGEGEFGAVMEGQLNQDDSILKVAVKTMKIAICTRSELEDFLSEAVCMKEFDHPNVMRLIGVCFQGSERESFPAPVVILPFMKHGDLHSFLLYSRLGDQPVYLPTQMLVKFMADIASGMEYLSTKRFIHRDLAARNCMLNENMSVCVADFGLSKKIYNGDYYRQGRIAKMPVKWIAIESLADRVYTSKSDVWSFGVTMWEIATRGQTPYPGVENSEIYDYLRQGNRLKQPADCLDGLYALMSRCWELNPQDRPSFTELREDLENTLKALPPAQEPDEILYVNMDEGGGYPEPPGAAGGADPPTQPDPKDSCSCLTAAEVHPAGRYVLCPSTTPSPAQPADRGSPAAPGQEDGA
Inhibitor of nuclear factor kappa-B kinase subunit beta (Homo sapiens), sequence (O14920 whole entry): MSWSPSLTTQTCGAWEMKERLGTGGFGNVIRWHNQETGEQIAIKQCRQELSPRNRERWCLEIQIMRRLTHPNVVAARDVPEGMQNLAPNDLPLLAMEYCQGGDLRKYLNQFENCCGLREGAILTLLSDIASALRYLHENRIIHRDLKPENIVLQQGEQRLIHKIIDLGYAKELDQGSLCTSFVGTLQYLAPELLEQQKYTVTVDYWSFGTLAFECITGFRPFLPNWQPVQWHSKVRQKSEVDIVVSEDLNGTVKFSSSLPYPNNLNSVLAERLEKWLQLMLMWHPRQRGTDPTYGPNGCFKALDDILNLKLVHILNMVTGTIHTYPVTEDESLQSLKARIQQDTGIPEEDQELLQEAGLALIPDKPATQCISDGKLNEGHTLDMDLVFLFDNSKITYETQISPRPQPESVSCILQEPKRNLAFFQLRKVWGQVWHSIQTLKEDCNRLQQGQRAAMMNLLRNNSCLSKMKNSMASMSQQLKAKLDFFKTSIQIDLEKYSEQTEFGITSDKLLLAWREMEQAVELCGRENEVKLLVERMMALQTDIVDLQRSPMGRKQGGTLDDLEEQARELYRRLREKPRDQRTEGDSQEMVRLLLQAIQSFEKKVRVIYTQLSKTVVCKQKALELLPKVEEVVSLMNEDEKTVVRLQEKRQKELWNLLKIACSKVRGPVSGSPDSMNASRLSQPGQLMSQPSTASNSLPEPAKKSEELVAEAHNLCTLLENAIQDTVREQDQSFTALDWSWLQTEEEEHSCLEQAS
Dual specificity tyrosine-phosphorylation-regulated kinase 2 (Homo sapiens), sequence (Q92630 whole entry): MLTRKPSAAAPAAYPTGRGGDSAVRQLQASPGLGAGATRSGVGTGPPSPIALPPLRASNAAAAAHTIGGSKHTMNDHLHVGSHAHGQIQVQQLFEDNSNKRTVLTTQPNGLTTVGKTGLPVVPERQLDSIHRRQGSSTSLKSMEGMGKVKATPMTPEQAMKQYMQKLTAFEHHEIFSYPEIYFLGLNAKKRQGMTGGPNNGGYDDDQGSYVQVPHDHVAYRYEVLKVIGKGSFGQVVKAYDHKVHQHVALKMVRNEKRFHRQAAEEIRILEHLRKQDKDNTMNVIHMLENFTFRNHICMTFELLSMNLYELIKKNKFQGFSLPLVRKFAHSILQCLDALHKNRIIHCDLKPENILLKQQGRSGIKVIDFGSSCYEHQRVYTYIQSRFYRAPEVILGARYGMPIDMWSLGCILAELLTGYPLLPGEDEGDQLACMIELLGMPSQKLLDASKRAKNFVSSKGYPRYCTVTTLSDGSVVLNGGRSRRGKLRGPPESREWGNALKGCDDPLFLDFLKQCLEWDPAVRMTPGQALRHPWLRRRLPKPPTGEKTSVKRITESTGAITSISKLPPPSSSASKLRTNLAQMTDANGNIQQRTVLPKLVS
NUAK family SNF1-like kinase 1 (Homo sapiens), sequence (O60285 whole entry): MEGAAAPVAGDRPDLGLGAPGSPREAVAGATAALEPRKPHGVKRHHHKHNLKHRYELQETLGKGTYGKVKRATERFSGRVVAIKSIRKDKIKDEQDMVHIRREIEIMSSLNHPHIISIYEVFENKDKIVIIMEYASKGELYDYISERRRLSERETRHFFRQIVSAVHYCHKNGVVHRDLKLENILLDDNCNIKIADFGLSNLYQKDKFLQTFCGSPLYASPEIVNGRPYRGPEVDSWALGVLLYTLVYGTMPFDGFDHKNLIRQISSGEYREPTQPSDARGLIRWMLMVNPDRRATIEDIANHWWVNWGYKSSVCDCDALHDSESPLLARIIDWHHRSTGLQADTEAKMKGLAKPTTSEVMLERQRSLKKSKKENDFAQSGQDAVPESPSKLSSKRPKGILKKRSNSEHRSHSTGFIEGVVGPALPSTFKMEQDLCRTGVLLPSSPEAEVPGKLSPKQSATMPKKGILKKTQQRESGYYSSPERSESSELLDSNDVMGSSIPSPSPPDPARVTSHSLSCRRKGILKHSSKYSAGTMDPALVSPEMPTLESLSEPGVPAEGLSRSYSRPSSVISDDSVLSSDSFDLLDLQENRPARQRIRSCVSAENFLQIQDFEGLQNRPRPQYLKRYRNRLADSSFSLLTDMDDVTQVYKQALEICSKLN

Regarding `Cc1[nH]nc(C2CC2)c1-c1ccc2c(-c3ccc(N4CCN(C)CC4)nc3)n[nH]c2c1`, the inhibition in assay [1] is 21.3%; in assay [2], -7.3%; in assay [3] it was 2.7%.
As to `COC(=O)Nc1cc(-c2c(C3CC3)n[nH]c2C)cc2[nH]ncc12`, the inhibition is 0.7% in [4]; 6.3% in [5]; 10.7% in assay [6]; 4.7% in [7]; -1.3% in assay [8]; 5% in [9]. Further, the inhibition was -1.3% in assay [10], 4% in assay [11] and -3.7% in [12].
As to `Cc1n[nH]c(C)c1-c1ccc2c(NC(=O)c3ccc(N4CCN(C)CC4)cc3)n[nH]c2c1`, the inhibition in [13] was 0%; in assay [14], -3%; in [15] it was -8.3%; in assay [16] it was -6.7%; in [17] it was -2.3%.
